Test system: Echinochloa crus-galli
Assay: Test 1-1 Post-emergence Treatment Test
Type: in vivo
Conditions: sprayed on whole plants at 1-2 leaf stages, treatment amount 1,000 g/10,000 m^2, after 20 days of the treatment, greenhouse
Procedure: Here an efficacy for controlling weeds on the present compound was visually observed and evaluated in 11 criteria of 0 to 10 (0 represents no action, 10 represents complete death and the intermediate efficacy were evaluated in 1 to 9 criteria).
Commercial soil for propagation was put in a pot measuring 8 cm in diameter and 6.5 cm in height, and in the pot, seeds of Echinochloa crus-galli were sown, and then covered with soil of about 0.5 cm thickness and the plants were grown in a greenhouse. When the plants were grown to 1-2 leaf stages, a predetermined amount of a chemical diluted solution containing a compound (1-1) was uniformly spayed on the whole plants. Here the chemical diluted solution was prepared by dissolving a predetermined amount of the compound (1-1) in dimethylformamide solution containing 2% of Tween 20 (polyoxyetylene sorbitan fatty acid ester) (manufactured by MP Biomedicals Inc.) and then diluting the solution with deionized water. After spraying, plants were grown in a greenhouse and after 20 days of the treatment, the efficacy for Echinochloa crus-galli was observed and the controlling effect was evaluated.
Similarly, the present compounds (1-2) to (1-11) and (1-13) were also tested.

CCc1cc(C)cc(CC)c1C1=C(O)CC(C(C)CS(=O)(=O)c2ccc(C(F)(F)F)cn2)OC1=O (stereo not shown) [(1-13)]
efficacy for controlling weeds (visually observed, 11 criteria of 0 to 10): ≥ 9

From patent publication US9758502B2, “Dihydropyrone compounds and herbicides comprising the same” (SUMITOMO CHEMICAL COMPANY, LIMITED, priority 2012, dated 2017)
